From patent US20240092773A1, “DIHYDRO-CYCLOPENTA-ISOQUINOLINE SULFONAMIDES DERIVATIVES” (UCB Biopharma SRL, priority 2019, published 2024)
pIC50: −log10 of the molar value.

biological target: IgE-Tb binding to soluble IgE receptor FcεR1α (Y131A mutation) (Homo sapiens, UniProt P01854, N146Q/N252Q); test: In vitro FRET assay: inhibition of binding of IgE-Tb to receptor FcεR1α-Y131A-AF488; details: read-out: FRET IC50 range
Sequence (P01854 whole entry N146Q/N252Q, looked up): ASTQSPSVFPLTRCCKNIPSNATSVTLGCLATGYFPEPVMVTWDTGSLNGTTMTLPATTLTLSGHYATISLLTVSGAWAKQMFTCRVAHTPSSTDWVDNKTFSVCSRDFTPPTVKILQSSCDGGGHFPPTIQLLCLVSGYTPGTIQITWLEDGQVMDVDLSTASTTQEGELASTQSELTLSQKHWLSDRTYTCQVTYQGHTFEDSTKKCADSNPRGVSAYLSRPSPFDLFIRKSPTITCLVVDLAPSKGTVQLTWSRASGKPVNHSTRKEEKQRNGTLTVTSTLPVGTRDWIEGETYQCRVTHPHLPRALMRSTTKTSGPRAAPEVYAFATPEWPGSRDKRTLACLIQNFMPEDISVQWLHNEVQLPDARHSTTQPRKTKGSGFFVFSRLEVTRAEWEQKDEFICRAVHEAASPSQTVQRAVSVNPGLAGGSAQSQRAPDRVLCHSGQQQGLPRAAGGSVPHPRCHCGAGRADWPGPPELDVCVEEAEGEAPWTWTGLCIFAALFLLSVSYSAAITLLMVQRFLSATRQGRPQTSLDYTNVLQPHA

`[2H]C([2H])(NS(=O)(=O)c1cc2c(c3cnc(C4CC4)cc13)CCC2NC(=O)OC(C)(C)C)C(C)C` (centres unmarked) [Example 33, tert-butyl N-[3-cyclopropyl-5-[(1,1-dideuterio-2-methylpropyl)sulfamoyl]-8,9-dihydro-7H-cyclopenta[h]isoquinolin-7-yl]carbamate] and `[2H]C([2H])(NS(=O)(=O)c1cc2c(c3cnc(C4CC4)cc13)CCC2N)C(C)C` (centres unmarked) [Example 34, 7-amino-3-cyclopropyl-N-(1,1-dideuterio-2-methylpropyl)-8,9-dihydro-7H-cyclopenta[h]isoquinoline-5-sulfonamide] fall in the same range of pIC50: 5.70 to 7.00 for the first, 5.70 to 7.00 for the second.

First: CC(C)CNS(=O)(=O)c1cc2c(c3cnc(C4CC4)cc13)CCC2Nc1nncn1-c1cccnc1 (centres unmarked) [Example 90, 3-cyclopropyl-N-(2-methylpropyl)-7-[(4-pyridin-3-yl-1,2,4-triazol-3-yl)amino]-8,9-dihydro-7H-cyclopenta[h]isoquinoline-5-sulfonamide]
Second: CC(C)CNS(=O)(=O)c1cc2c(c3cnc(C4CC4)cc13)C(Nc1nncn1-c1cccnc1)CC2 (centres unmarked) [Example 75, 3-cyclopropyl-N-(2-methylpropyl)-9-[(4-pyridin-3-yl-1,2,4-triazol-3-yl]amino]-8,9-dihydro-7H-cyclopenta[h]isoquinoline-5-sulfonamide]
The pIC50 of the first is lower: 5.70 to 7.00 for the first, 7.30 to 8.00 for the second.

`CC(C)CNS(=O)(=O)c1cc2c(c3cnc(C4CC4)cc13)C(=O)CC2` [Example 63, 3-cyclopropyl-N-(2-methylpropyl)-9-oxo-7,8-dihydrocyclopenta[h]isoquinoline-5-sulfonamide] and `CC(C)CNS(=O)(=O)c1cc2c(c3cnc(C4CC4)cc13)CCC2=O` [Example 48, 3-cyclopropyl-N-(2-methylpropyl)-7-oxo-8,9-dihydrocyclopenta[h]isoquinoline-5-sulfonamide] fall in the same range of pIC50: 5.70 to 7.00 for the first, 5.70 to 7.00 for the second.

`Cc1cc(C(=O)N[C@@H]2CCc3cc(S(=O)(=O)NCC(C)C)c4cc(C5CC5)ncc4c32)n[nH]1` (single isomer, unassigned) [Example 20, 5-methyl-N-[(9R*)-3-cyclopropyl-5-(2-methylpropylsulfamoyl)-8,9-dihydro-7H-cyclopenta[h]isoquinolin-9-yl]-1H-pyrazole-3-carboxamide] and `CC(C)CNS(=O)(=O)c1cc2c(c3cnc(C4CC4)cc13)C(O)CC2` (centres unmarked) [Example 62, 3-cyclopropyl-9-hydroxy-N-(2-methylpropyl)-8,9-dihydro-7H-cyclopenta[h]isoquinoline-5-sulfonamide] fall in the same range of pIC50: 5.70 to 7.00 for the first, 5.70 to 7.00 for the second.

`CC(C)CNS(=O)(=O)c1cc2c(c3cnc(C4CC4)cc13)C(NCc1cccnc1)CC2` (centres unmarked) [Example 14, 3-cyclopropyl-N-(2-methylpropyl)-9-(pyridin-3-ylmethylamino)-8,9-dihydro-7H-cyclopenta[h]isoquinoline-5-sulfonamide] and `CC(C)CNS(=O)(=O)c1cc2c(c3cnc(C4CC4)cc13)C(NS(=O)(=O)c1cccnc1)CC2` (centres unmarked) [Example 15, 3-cyclopropyl-N-(2-methylpropyl)-9-(pyridin-3-ylsulfonylamino)-8,9-dihydro-7H-cyclopenta[h]isoquinoline-5-sulfonamide] fall in the same range of pIC50: 5.70 to 7.00 for the first, 5.70 to 7.00 for the second.

First: CC(C)(F)CNS(=O)(=O)c1cc2c(c3cnc(C4CC4)cc13)[C@H](NC(=O)c1c[nH]c3cc(F)ccc13)CC2 (single isomer, unassigned) [Example 16, 6-fluoro-N-[(9R*)-3-cyclopropyl-5-[(2-fluoro-2-methylpropyl)sulfamoyl]-8,9-dihydro-7H-cyclopenta[h]isoquinolin-9-yl]-1H-indole-3-carboxamide]
Second: CC(C)(F)CNS(=O)(=O)c1cc2c(c3cnc(C4CC4)cc13)C(Nc1cncnc1)CC2 (centres unmarked) [Example 28, 3-cyclopropyl-N-(2-fluoro-2-methylpropyl)-9-(pyrimidin-5-ylamino)-8,9-dihydro-7H-cyclopenta[h]isoquinoline-5-sulfonamide]
The pIC50 of the first is lower: 5.70 to 7.00 for the first, 7.00 to 7.30 for the second.

`Cc1cc(Nc2nncn2[C@H]2CCc3c2cc(S(=O)(=O)NCC(C)(C)F)c2cc(C4CC4)ncc32)n(C)n1` (single isomer, unassigned) [Example 86, (7R*)-3-cyclopropyl-7-[3-[(2,5-dimethylpyrazol-3-yl)amino]-1,2,4-triazol-4-yl]-N-(2-fluoro-2-methylpropyl)-8,9-dihydro-7H-cyclopenta[h]isoquinoline-5-sulfonamide] and `Cc1cc(Nc2nncn2[C@H]2CCc3c2cc(S(=O)(=O)NCC(C)(C)F)c2cc(C4CC4)nnc32)n(C)n1` (single isomer, unassigned) [Example 25, (7R*)-3-cyclopropyl-7-[3-[(2,5-dimethylpyrazol-3-yl)amino]-1,2,4-triazol-4-yl]-N-(2-fluoro-2-methylpropyl)-8,9-dihydro-7H-cyclopenta[h]cinnoline-5-sulfonamide] fall in the same range of pIC50: 7.00 to 7.30 for the first, 7.00 to 7.30 for the second.

First: CC(C)CNS(=O)(=O)c1cc2c(c3cnc(C4CC4)cc13)CCC2(C)O (centres unmarked) [Example 49, 3-cyclopropyl-7-hydroxy-7-methyl-N-(2-methylpropyl)-8,9-dihydrocyclopenta[h]isoquinoline-5-sulfonamide]
Second: CCn1cnnc1NC1CCc2cc(S(=O)(=O)NCC(C)C)c3cc(C4CC4)ncc3c21 (single isomer, unassigned) [Example 73, (9R*)-3-cyclopropyl-9-[(4-ethyl-1,2,4-triazol-3-yl)amino]-N-(2-methylpropyl)-8,9-dihydro-7H-cyclopenta[h]isoquinoline-5-sulfonamide]
The pIC50 of the first is lower: 5.70 to 7.00 for the first, 7.30 to 8.00 for the second.

Compared with `CC(C)(F)CNS(=O)(=O)c1cc2c(c3cnc(C4CC4)cc13)OCC2O` (centres unmarked) [Example 36, 7-cyclopropyl-N-(2-fluoro-2-methylpropyl)-3-hydroxy-2,3-dihydrofuro[3,2-h]isoquinoline-5-sulfonamide], `CC(C)(F)CNS(=O)(=O)c1cc2c(c3cnc(C4CC4)cc13)CCC2n1nnnc1N` (centres unmarked) [Example 39, 7-(5-aminotetrazol-1-yl)-3-cyclopropyl-N-(2-fluoro-2-methylpropyl)-8,9-dihydro-7H-cyclopenta[h]isoquinoline-5-sulfonamide] is lower in pIC50: 7.30 to 8.00 for the first, 5.70 to 7.00 for the second. The first is the more potent here.

`CC(C)CNS(=O)(=O)c1cc2c(c3cnc(C4CC4)cc13)C(NC(=O)OCc1ccccc1)CC2` (centres unmarked) [Example 44, benzyl N-[3-cyclopropyl-5-(2-methylpropylsulfamoyl)-8,9-dihydro-7H-cyclopenta[h]isoquinolin-9-yl]carbamate] and `CCNC1=NS(=O)(=O)N=C1NC1CCc2cc(S(=O)(=O)NCC(C)C)c3cc(C4CC4)ncc3c21` (centres unmarked) [Example 66, 3-cyclopropyl-9-[[4-(ethylamino)-1,1-dioxo-1,2,5-thiadiazol-3-yl]amino]-N-(2-methylpropyl)-8,9-dihydro-7H-cyclopenta[h]isoquinoline-5-sulfonamide] fall in the same range of pIC50: 5.70 to 7.00 for the first, 5.70 to 7.00 for the second.

`Cc1cc(C(=O)NC2CN(C3CCc4c3cc(S(=O)(=O)NCC(C)(C)F)c3cc(C5CC5)ncc43)C2)n(C)n1` (centres unmarked) [Example 59, N-[1-[3-cyclopropyl-5-[(2-fluoro-2-methylpropyl)sulfamoyl]-8,9-dihydro-7H-cyclopenta[h]isoquinolin-7-yl]azetidin-3-yl]-2,5-dimethylpyrazole-3-carboxamide] and `CNC(=O)[C@H]1CCCN1[C@@H]1CCc2c1cc(S(=O)(=O)NCC(C)(C)F)c1cc(C3CC3)ncc21` (relative stereo) [Example 58, (2R)-1-[(7R*)-3-cyclopropyl-5-[(2-fluoro-2-methylpropyl)sulfamoyl]-8,9-dihydro-7H-cyclopenta[h]isoquinolin-7-yl]-N-methylpyrrolidine-2-carboxamide] fall in the same range of pIC50: 5.70 to 7.00 for the first, 5.70 to 7.00 for the second.

Compared with `Cc1nnc(-c2ccc(NC3CCc4c3cc(S(=O)(=O)NCC(C)(C)F)c3cc(C5CC5)ncc43)cn2)o1` (centres unmarked) [Example 42, 3-cyclopropyl-N-(2-fluoro-2-methylpropyl)-7-[[6-(5-methyl-1,3,4-oxadiazol-2-yl)pyridin-3-yl]amino]-8,9-dihydro-7H-cyclopenta[h]isoquinoline-5-sulfonamide], `Cc1nnc(-c2ccc(NC3CCc4cc(S(=O)(=O)NCC(C)(C)F)c5cc(C6CC6)ncc5c43)cn2)o1` (centres unmarked) [Example 76, 3-cyclopropyl-N-(2-fluoro-2-methylpropyl)-9-[[6-(5-methyl-1,3,4-oxadiazol-2-yl)pyridin-3-yl]amino]-8,9-dihydro-7H-cyclopenta[h]isoquinoline-5-sulfonamide] is lower in pIC50: 8.00 to 9.00 for the first, 5.70 to 7.00 for the second. The first is the more potent here.

`CC(C)(F)CNS(=O)(=O)c1cc2c(c3cnc(C4CC4)cc13)CC[C@H]2C(=O)Nc1cccnc1` (single isomer, unassigned) [Example 37, (7R*)-3-cyclopropyl-5-[(2-fluoro-2-methylpropyl)sulfamoyl]-N-pyridin-3-yl-8,9-dihydro-7H-cyclopenta[h]isoquinoline-7-carboxamide] and `CC(C)(F)CNS(=O)(=O)c1cc2c(c3cnc(C4CC4)cc13)C(Oc1cccnc1)CC2` (centres unmarked) [Example 93, 3-cyclopropyl-N-(2-fluoro-2-methylpropyl)-9-pyridin-3-yloxy-8,9-dihydro-7H-cyclopenta[h]isoquinoline-5-sulfonamide] fall in the same range of pIC50: 5.70 to 7.00 for the first, 5.70 to 7.00 for the second.

Compared with `[2H]C([2H])(NS(=O)(=O)c1cc2c(c3cnc(C4CC4)cc13)CCC2n1cnnc1NCC1CC1)C(C)C` (centres unmarked) [Example 35, 3-cyclopropyl-7-[3-(cyclopropylmethylamino)-1,2,4-triazol-4-yl]-N-(1,1-dideuterio-2-methylpropyl)-8,9-dihydro-7H-cyclopenta[h]isoquinoline-5-sulfonamide], `CCNC1=NS(=O)(=O)N=C1NC1CCc2c1cc(S(=O)(=O)NCC(C)C)c1cc(C3CC3)ncc21` (centres unmarked) [Example 54, 3-cyclopropyl-7-[[4-(ethylamino)-1,1-dioxo-1,2,5-thiadiazol-3-yl]amino]-N-(2-methylpropyl)-8,9-dihydro-7H-cyclopenta[h]isoquinoline-5-sulfonamide] is lower in pIC50: 7.30 to 8.00 for the first, 5.70 to 7.00 for the second. The first is the more potent here.

For `Cc1cc(NC(=S)NC2CCc3c2cc(S(=O)(=O)NCC(C)(C)F)c2cc(C4CC4)nnc32)n(C)n1` (centres unmarked) [Example 23, 1-[3-cyclopropyl-5-[(2-fluoro-2-methylpropyl)sulfamoyl]-8,9-dihydro-7H-cyclopenta[h]cinnolin-7-yl]-3-(2,5-dimethylpyrazol-3-yl)thiourea], the pIC50 was 7.30 to 8.00.
